Tests used:
bermuda-grass = assay: Test D bermudagrass; assay type: in vivo, Cynodon dactylon; conditions: Postemergence, 0 to 100 scale
common groundsel = assay: Test D common groundsel; assay type: in vivo, Senecio vulgaris; conditions: Postemergence, 0 to 100 scale
dallisgrass = assay: Test D dallisgrass; assay type: in vivo, Paspalum dilatatum; conditions: Postemergence, 0 to 100 scale
goosegrass = assay: Test D goosegrass; assay type: in vivo, Eleusine indica; conditions: Postemergence, 0 to 100 scale
guineagrass = assay: Test D guineagrass; assay type: in vivo, Panicum maximum; conditions: Postemergence, 0 to 100 scale
itchgrass = assay: Test D itchgrass; assay type: in vivo, Rottboellia exaltata; conditions: Postemergence, 0 to 100 scale
Johnson grass = assay: Test D Johnson grass; assay type: in vivo, Sorghum halepense; conditions: Postemergence, 0 to 100 scale
large crabgrass = assay: Test D large crabgrass; assay type: in vivo, Digitaria sanguinalis; conditions: Postemergence, 0 to 100 scale
pitted morningglory = assay: Test D pitted morningglory; assay type: in vivo, Ipomoea lacunosa; conditions: Postemergence, 0 to 100 scale
purple nutsedge = assay: Test D purple nutsedge; assay type: in vivo, Cyperus rotundus; conditions: Postemergence, 0 to 100 scale
Spanishneedles = assay: Test D Spanishneedles; assay type: in vivo, Bidens bipinnata; conditions: Postemergence, 0 to 100 scale
surinam grass = assay: Test D surinam grass; assay type: in vivo, Brachiaria decumbens; conditions: Postemergence, 0 to 100 scale
tall mallow = assay: Test D tall mallow; assay type: in vivo, Malva sylvestris; conditions: Postemergence, 0 to 100 scale
Green foxtail [1] = assay: Test D green foxtail; assay type: in vivo; conditions: Postemergence, 0 to 100 scale, 0 no injury, 100 complete control
Green foxtail [2] = assay: Test D green foxtail; assay type: in vivo; conditions: Rate 250 g/ha; Postemergence; 0 to 100 scale
Green foxtail [3] = assay: Test D green foxtail; assay type: in vivo; conditions: Postemergence, 0 to 100 scale, 0 no injury, 100 complete control; remark: listed apart in the source
Green foxtail [4] = assay: Test D green foxtail; assay type: in vivo; conditions: Postemergence, 0 to 100 scale, 0 no injury, 100 complete control; remark: listed apart in the source
[5] = Rate 16 g/ha, 0 no injury, 100 complete control
[6] = Rate 32 g/ha, 0 no injury, 100 complete control
[7] = Rate 64 g/ha, 0 no injury, 100 complete control
[8] = Rate 125 g/ha, 0 no injury, 100 complete control

In the case of `CCC(CC)n1c(=O)on(C(=O)N(c2ccc(F)cc2)C(C)C)c1=O` [Compound 358], the “Plant response rating, Bermudagrass” value (bermuda-grass; [5]) is reported as 0, the “Plant response rating, Bermudagrass” value (bermuda-grass; [6]) is reported as 90 and the “Plant response rating, Bermudagrass” value (bermuda-grass; [7]) is reported as 100. For the same molecule, the “Plant response rating, Bermudagrass” value (bermuda-grass; [8]) was 100, the “Plant response rating, Bermudagrass” value (bermuda-grass; Rate 250 g/ha) was 100 and the “Plant response rating, Com. groundsel” value (common groundsel; [5]) was 0. The “Plant response rating, Com. groundsel” value (common groundsel; [6]) was 0, the “Plant response rating, Com. groundsel” value (common groundsel; [7]) was 0 and the “Plant response rating, Com. groundsel” value (common groundsel; Rate 250 g/ha) was 40. The “Plant response rating, Dallisgrass” value (dallisgrass; [5]) was 0, the “Plant response rating, Dallisgrass” value (dallisgrass; [6]) was 30 and the “Plant response rating, Dallisgrass” value (dallisgrass; [7]) was 100. For the same molecule, the “Plant response rating, Dallisgrass” value (dallisgrass; [8]) was 100, the “Plant response rating, Dallisgrass” value (dallisgrass; Rate 250 g/ha) was 100 and the “Plant response rating, Goosegrass” value (goosegrass; [5]) was 0. The “Plant response rating, Goosegrass” value (goosegrass; [6]) was 20, the “Plant response rating, Goosegrass” value (goosegrass; [7]) was 100 and the “Plant response rating, Goosegrass” value (goosegrass; [8]) was 100. For the same molecule, the “Plant response rating, Goosegrass” value (goosegrass; Rate 250 g/ha) was 100, the “Plant response rating, Guineagrass” value (guineagrass; [5]) was 0 and the “Plant response rating, Guineagrass” value (guineagrass; [6]) was 0. The “Guineagrass plant response rating” value (guineagrass; [7]) was 20, the “Plant response rating, Guineagrass” value (guineagrass; [7]) was 100 and the “Plant response rating, Guineagrass” value (guineagrass; [8]) was 100. For the same molecule, the “Plant response rating, Guineagrass” value (guineagrass; Rate 250 g/ha) was 100, the “Plant response rating, Itchgrass” value (itchgrass; [5]) was 0 and the “Plant response rating, Itchgrass” value (itchgrass; [6]) was 0. The “Plant response rating, Itchgrass” value (itchgrass; [7]) was 0, the “Plant response rating, Itchgrass” value (itchgrass; [8]) was 0 and the “Plant response rating, Itchgrass” value (itchgrass; Rate 250 g/ha) was 100. For the same molecule, the “Plant response rating, Johnsongrass” value (Johnson grass; [5]) was 0, the “Plant response rating, Johnsongrass” value (Johnson grass; [6]) was 0 and the “Plant response rating, Johnsongrass” value (Johnson grass; [7]) was 0. For the same molecule, the “Plant response rating, Johnsongrass” value (Johnson grass; [8]) was 0, the “Plant response rating, Johnsongrass” value (Johnson grass; Rate 250 g/ha) was 100 and the “Plant response rating, Large crabgrass” value (large crabgrass; [5]) was 0. For the same molecule, the “Plant response rating, Large crabgrass” value (large crabgrass; [6]) was 40, the “Plant response rating, Large crabgrass” value (large crabgrass; [7]) was 100 and the “Plant response rating, Large crabgrass” value (large crabgrass; [8]) was 100. For the same molecule, the “Plant response rating, Large crabgrass” value (large crabgrass; Rate 250 g/ha) was 100, the “Plant response rating, P. morninglory” value (pitted morningglory; [5]) was 0 and the “Plant response rating, P. morninglory” value (pitted morningglory; [6]) was 0. The “Plant response rating, P. morninglory” value (pitted morningglory; [7]) was 0, the “Plant response rating, P. morninglory” value (pitted morningglory; [8]) was 0 and the “Plant response rating, P. morninglory” value (pitted morningglory; Rate 250 g/ha) was 0. The “Plant response rating, Purple nutsedge” value (purple nutsedge; [5]) was 0, the “Plant response rating, Purple nutsedge” value (purple nutsedge; [6]) was 0 and the “Purple nutsedge plant response rating” value (purple nutsedge; [7]) was 0. For the same molecule, the “Purple nutsedge plant response rating” value (purple nutsedge; [8]) was 0, the “Plant response rating, Purple nutsedge” value (purple nutsedge; Rate 250 g/ha) was 10 and the “Plant response rating, Spanishneedles” value (Spanishneedles; [5]) was 0. The “Plant response rating, Spanishneedles” value (Spanishneedles; [6]) was 0, the “Spanishneedles plant response rating” value (Spanishneedles; [7]) was 0 and the “Spanishneedles plant response rating” value (Spanishneedles; [8]) was 0. For the same molecule, the “Plant response rating, Spanishneedles” value (Spanishneedles; Rate 250 g/ha) was 0, the “Plant response rating, Surinam grass” value (surinam grass; [5]) was 0 and the “Plant response rating, Surinam grass” value (surinam grass; [6]) was 0. The “Surinam grass plant response rating” value (surinam grass; [7]) was 0, the “Surinam grass plant response rating” value (surinam grass; [8]) was 50 and the “Plant response rating, Surinam grass” value (surinam grass; Rate 250 g/ha) was 50. The “Plant response rating, Tall Mallow” value (tall mallow; [5]) was 0, the “Plant response rating, Tall Mallow” value (tall mallow; [6]) was 30 and the “Tall Mallow plant response rating” value (tall mallow; [7]) was 50. The “Tall Mallow plant response rating” value (tall mallow; [8]) was 70, the “Plant response rating, Tall Mallow” value (tall mallow; Rate 250 g/ha) was 80 and the “Plant response rating, Green foxtail” value (Green foxtail [1]; Rate 16 g/ha) was 0. The “Plant response rating, Green foxtail” value (Green foxtail [1]; Rate 32 g/ha) was 30, the “Plant response rating, Green foxtail” value (Green foxtail [2]) was 100 and the “Green foxtail plant response rating” value (Green foxtail [3]; Rate 64 g/ha) was 100. For the same molecule, the “Green foxtail plant response rating” value (Green foxtail [3]; Rate 125 g/ha) was 100, the “Plant response rating, Green foxtail” value (Green foxtail [4]; Rate 16 g/ha) was 0 and the “Plant response rating, Green foxtail” value (Green foxtail [4]; Rate 32 g/ha) was 30.

Reference: patent US6737383B1, “Herbicidal oxadiazolidines” (priority 1999, dated 2004)
